Source: publication PMC8429736, “Pharmacological characterization of mutant huntingtin aggregate-directed PET imaging tracer candidates” (Scientific Reports, 2021)

Experiments:
[1] = ARG, human post-mortem CTRL frontal cortex sections; assay type: binding
[2] = test system: mHTT aggregates in HOM zQ175 brain sections; assay: In vitro ARG, single concentration, HOM zQ175 brain sections; assay type: binding, mouse; conditions: 0.5 nM
Method: (§1) Twenty µm-thick sections were prepared from brains of disease mouse models and WT mice or human post-mortem brain samples by using a cryostat, mounted on superfrost slides and stored at -80 °C for a maximum of 2 weeks. On the day of the experiment, slides were adapted to room temperature for 30 min and then equilibrated by immersion into assay buffer (50 mM Tris–HCl pH 7.4; 120 mM NaCl; 5 mM KCl; 2 mM CaCl2; 1 mM MgCl2) for 20 min at room temperature.
(§2) Radioligand solutions were prepared in assay buffer. Optimal radioligand concentrations were determined in advance based on signal-to-background ratio obtained in mouse or human brain tissue. The solutions were mixed in a Coplin jar (Sigma, S5516-6EA) by gently shaking at 175 rpm for 10 min at room temperature. Sections were incubated by immersion into assay buffer containing either only radioligand (total binding or TB) or radioligand plus 10 µM of unlabeled compound (non-specific binding or NSB) for 60 min at room temperature. Afterwards slides were washed three times for 10 min with ice-cold washing buffer (50 mM Tris–HCl (pH 7.4)) at 4 °C and dipped for three seconds in ice-cold distilled water to remove buffer salts. The slides were dried for 3 h at 30 °C and exposed for 96 h to a Tritium Phosphor Screen (GE Healthcare, Fuji BAS-TR 2025 E) Stored radiation energy on the screen was scanned using a Phosphorimager (GE Healthcare, Typhoon FLA 7000). Densitometric data analysis of radioligand binding was performed using the MCID Analysis 7.1 software (Interfocus Imaging Ltd.). Radioisotope concentration standards (American Radiolabeled Chemicals, ART 0123C and ART 0123B) were exposed with each specimen to enable conversion of density values into tissue-equivalent ligand concentrations (e.g., fmol/mg tissue). A standard curve was created to relate the system´s internal relative optical density measurement (ROD; an inverse logarithmic function of gray level values) to the set of standard values (e.g., isotope concentration). The standard´s isotope concentration (e.g., nCi/mg) is therefore converted into tissue-equivalent ligand concentrations (e.g., fmol/mg tissue) by referring to the radioligand´s specific activity (e.g., Ci/mmol) and including decay-correction. After phosphor screen exposure the human brain sections were stained for 4 min with 0.1% toluidine blue dye solution (Sigma-Aldrich) and rinsed twice in distilled water. To differentiate gray and white matter, the slides were decolorized with 70% ethanol (Merck) for 2–5 min followed by rinse in distilled water. Gray matter appears as gray color and white matter as bluish.

[3] = In vitro ARG, single concentration, WT mouse brain sections; assay type: binding; conditions: 0.5 nM
Method: as §1, §2

Exon1-Q46 aggregates = target: T1, Exon1-Q46 aggregates (Homo sapiens, UniProt P42858, INS38QQQQQQQQQQQQQQQQQQQQQQQQQ); assay: RAFTA saturation binding, recombinant Exon1-Q46 aggregates
T1 construct: MBP-HTT(1-89)Q46-His(6x); MBP (N, cleaved yes); made in house; host or cells: E. coli BL21 (DE3)
T1 sequence (P42858 with tags, fused parts or gaps with the stated changes): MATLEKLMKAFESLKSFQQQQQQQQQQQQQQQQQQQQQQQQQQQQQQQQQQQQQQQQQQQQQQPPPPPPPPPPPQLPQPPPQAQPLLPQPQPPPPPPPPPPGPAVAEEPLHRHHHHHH

Which results are given for `COc1ccc(COc2ccc3oc(-c4ccc(=O)n(C)n4)nc3c2)nc1` [CHDI-180]?
NSB in CTRL brain sections ([1]; 1 nM radioligand plus cold compound): below 0.5 fmol/mg tissue; binding to frontal cortical sections, CTRL tissue ([1]; 1 nM radioligand, gray matter): 0.8 ± 0.3 fmol/mg tissue; NSB ([2]; 3 month HOM Q175, CTX): 1.3 ± 2.2 fmol/mg; SB ([2]; 3 month HOM Q175, CTX): 4.3 ± 2.3 fmol/mg; TB ([2]; 3 month HOM Q175, CTX): 5.6 ± 0.3 fmol/mg; NSB ([2]; 3 month HOM Q175, HPC): 0.3 ± 0.3 fmol/mg; SB ([2]; 3 month HOM Q175, HPC): 4.8 ± 0.4 fmol/mg; TB ([2]; 3 month HOM Q175, HPC): 5.1 ± 0.3 fmol/mg; NSB ([2]; 3 month HOM Q175, STR): 0.4 ± 0.4 fmol/mg; SB ([2]; 3 month HOM Q175, STR): 3.5 ± 0.3 fmol/mg; TB ([2]; 3 month HOM Q175, STR): 3.9 ± 0.5 fmol/mg; NSB ([2]; 6 month HOM Q175, CTX): 0.2 ± 0.4 fmol/mg; SB ([2]; 6 month HOM Q175, CTX): 24.4 ± 1.4 fmol/mg; TB ([2]; 6 month HOM Q175, CTX): 24.6 ± 1.0 fmol/mg; NSB ([2]; 6 month HOM Q175, HPC): 0.1 ± 0.0 fmol/mg; SB ([2]; 6 month HOM Q175, HPC): 25.0 ± 1.6 fmol/mg; TB ([2]; 6 month HOM Q175, HPC): 25.1 ± 1.6 fmol/mg; NSB ([2]; 6 month HOM Q175, STR): 0.3 ± 0.2 fmol/mg; SB ([2]; 6 month HOM Q175, STR): 15.8 ± 2.7 fmol/mg; TB ([2]; 6 month HOM Q175, STR): 16.1 ± 2.9 fmol/mg; NSB ([2]; 9 month HOM Q175, CTX): 0.9 ± 0.8 fmol/mg; SB ([2]; 9 month HOM Q175, CTX): 48.8 ± 8.3 fmol/mg; TB ([2]; 9 month HOM Q175, CTX): 49.7 ± 7.4 fmol/mg; NSB ([2]; 9 month HOM Q175, HPC): 0.2 ± 0.2 fmol/mg; SB ([2]; 9 month HOM Q175, HPC): 41.3 ± 2.2 fmol/mg; TB ([2]; 9 month HOM Q175, HPC): 41.5 ± 2.4 fmol/mg; NSB ([2]; 9 month HOM Q175, STR): 0.4 ± 0.4 fmol/mg; SB ([2]; 9 month HOM Q175, STR): 28.4 ± 2.4 fmol/mg; TB ([2]; 9 month HOM Q175, STR): 28.8 ± 2.7 fmol/mg; NSB ([2]; 12 month HOM Q175, CTX): 0.8 ± 0.7 fmol/mg; SB ([2]; 12 month HOM Q175, CTX): 70.2 ± 10.5 fmol/mg; TB ([2]; 12 month HOM Q175, CTX): 70.9 ± 11.0 fmol/mg; NSB ([2]; 12 month HOM Q175, HPC, n=2): 0.4 ± 0.7 fmol/mg; NSB ([2]; 12 month HOM Q175, STR): 0.4 ± 0.3 fmol/mg; SB ([2]; 12 month HOM Q175, STR): 41.3 ± 2.8 fmol/mg; TB ([2]; 12 month HOM Q175, STR): 41.6 ± 3.1 fmol/mg; NSB ([3]; 3 month WT, CTX): 0.6 ± 0.5 fmol/mg; SB ([3]; 3 month WT, CTX): 1.3 ± 1.0 fmol/mg; TB ([3]; 3 month WT, CTX): 1.9 ± 0.5 fmol/mg; NSB ([3]; 3 month WT, HPC): 0.5 ± 0.6 fmol/mg; SB ([3]; 3 month WT, HPC): 1.6 ± 0.6 fmol/mg; TB ([3]; 3 month WT, HPC): 2.0 ± 0.4 fmol/mg; NSB ([3]; 3 month WT, STR): 0.7 ± 0.6 fmol/mg; SB ([3]; 3 month WT, STR): 1.1 ± 0.4 fmol/mg; TB ([3]; 3 month WT, STR): 1.8 ± 0.3 fmol/mg; NSB ([3]; 6 month WT, CTX): 0.5 ± 0.6 fmol/mg; SB ([3]; 6 month WT, CTX): 1.2 ± 0.5 fmol/mg; TB ([3]; 6 month WT, CTX): 1.8 ± 0.1 fmol/mg; NSB ([3]; 6 month WT, HPC): 0.6 ± 0.8 fmol/mg; SB ([3]; 6 month WT, HPC): 1.5 ± 0.1 fmol/mg; TB ([3]; 6 month WT, HPC): 2.2 ± 0.7 fmol/mg; NSB ([3]; 6 month WT, STR): 0.4 ± 0.5 fmol/mg; SB ([3]; 6 month WT, STR): 1.6 ± 0.1 fmol/mg; TB ([3]; 6 month WT, STR): 2.0 ± 0.6 fmol/mg; NSB ([3]; 9 month WT, CTX): 0.1 ± 0.2 fmol/mg; SB ([3]; 9 month WT, CTX): 1.2 ± 0.2 fmol/mg; TB ([3]; 9 month WT, CTX): 1.3 ± 0.4 fmol/mg; NSB ([3]; 9 month WT, HPC): 0.6 ± 0.8 fmol/mg; SB ([3]; 9 month WT, HPC): 1.1 ± 0.5 fmol/mg; TB ([3]; 9 month WT, HPC): 1.8 ± 0.5 fmol/mg; NSB ([3]; 9 month WT, STR): 0.0 ± 0.0 fmol/mg; SB ([3]; 9 month WT, STR): 1.6 ± 0.1 fmol/mg; TB ([3]; 9 month WT, STR): 1.6 ± 0.1 fmol/mg; NSB ([3]; 12 month WT, CTX): 0.1 ± 0.1 fmol/mg; SB ([3]; 12 month WT, CTX): 1.2 ± 0.2 fmol/mg; TB ([3]; 12 month WT, CTX): 1.3 ± 0.3 fmol/mg; NSB ([3]; 12 month WT, HPC): 0.0 ± 0.1 fmol/mg; SB ([3]; 12 month WT, HPC): 1.6 ± 0.5 fmol/mg; TB ([3]; 12 month WT, HPC): 1.6 ± 0.4 fmol/mg; NSB ([3]; 12 month WT, STR): 0.2 ± 0.2 fmol/mg; SB ([3]; 12 month WT, STR): 1.2 ± 0.2 fmol/mg; TB ([3]; 12 month WT, STR): 1.3 ± 0.0 fmol/mg; Kd (Exon1-Q46 aggregates): 5.6 nM; RAFTA Bmax (Exon1-Q46 aggregates): 1456 fmol/mg
